Reference: article PMC12612871, “Novel 1,3-Diazepines as Nontoxic Corrosion Inhibitors” (ACS Omega, 2025)
Where two headings read alike, the source gives them in different places.

Legend:
[1] = system: MDA-MB-231 human breast adenocarcinoma cell line; assay: MTT cell viability assay, MDA-MB-231; assay type: cell-based; conditions: 0.01 to 100 μM, read-out: IC50 (μM) ± S.D MDA-MB-231
Description: (§1) The MDA-MB-231 human breast adenocarcinoma cell line (ATCC HTB-26), A549 human lung carcinoma cell line (ATCC CCL-185), TOV-21G human ovarian adenocarcinoma cell line (ATCC CRL-11730), and WI-26VA4 human lung fibroblast cell line (ATCC CCL-95.1) were cultured in RPMI-1640 medium supplemented with 10% fetal bovine serum (FBS) and gentamicin (100 μg/mL). Cells were maintained at 37 °C in a humidified atmosphere containing 5% CO2.
(§2) Cell viability was assessed using the MTT assay (3-[4,5-dimethylthiazol-2-yl]-2,5-diphenyl-tetrazolium bromide). Briefly, 100 μL of complete medium containing 1 × 10^4 cells was added to each well of a 96-well tissue culture plate. Cells were incubated at 37 °C in a humidified atmosphere with 5% CO2 for 24 h prior to treatment. Following medium removal, 100 μL of fresh medium containing the test compounds at concentrations ranging from 0.01 to 100 μM was added to each well, and cells were incubated for 48 h under the same conditions. All compounds were presolubilized in dimethyl sulfoxide (DMSO), and the final DMSO concentration in all treatments was maintained at ≤ 0.2% to avoid interference with cell viability.
(§3) After treatment, the medium was replaced with 100 μL of MTT solution (0.5 mg/mL) per well, followed by a 3 h incubation. Formazan crystals were dissolved by adding 100 μL of DMSO to each well, and absorbance was measured at 550 nm using a microplate reader (SpectraMax M5e, Molecular Devices, Sunnyvale, CA, USA). The percentage of growth inhibition was calculated as [1-(Abs of treated/Abs of control)]×100. All experiments were conducted in triplicate, and results are expressed as mean IC50 values, which were determined using OriginPro 8.0 software (OriginLab Corporation, Northampton, MA, USA).

[2] = system: A549 human lung carcinoma cell line; assay: MTT cell viability assay, A549; assay type: cell-based; conditions: 0.01 to 100 μM, read-out: IC50 (μM) ± S.D A549
Description: as §1, §2, §3

[3] = system: TOV-21G human ovarian adenocarcinoma cell line; assay: MTT cell viability assay, TOV-21G; assay type: cell-based; conditions: 48 h, 0.01 to 100 μM, read-out: IC50 (μM) ± S.D TOV-21G
Description: as §1, §2, §3

[4] = system: WI-26VA4 human lung fibroblast cell line; assay: MTT cell viability assay, WI-26VA4; assay type: cell-based; conditions: 0.01 to 100 μM, read-out: IC50 (μM) ± S.D WI-26VA4
Description: as §1, §2, §3

[5] = Mass loss (gravimetric) corrosion inhibition test; conditions: 2 mmol L–1 inhibitor, 5% (v/v) DMSO in HCl 1 mol L–1, 4 h immersion, relative to solution without inhibitor
Description: SAE 1020 steel plates, with a composition of C (0.18–0.23%), Mn (0.3–0.6%), P (0.03%), and S (0.05%), and dimensions of 2.5 × 2.5 × 0.13 cm, were polished sequentially using emery papers of increasing grit sizes (150, 220, 320, 400 and 600). After polishing, the plates were thoroughly rinsed with deionized (Milli-Q) water.
A control solution was prepared by dissolving 5% (v/v) dimethyl sulfoxide in HCl 1 mol L^–1. Inhibitor-containing solutions were prepared by adding 2 mmol L^–1 of the inhibitor to 5% (v/v) dimethyl sulfoxide in HCl 1 mol L^–1 using deionized (Milli-Q) water. SAE 1020 steel plates were immersed in these solutions for a duration of 4 h.
The gravimetric method was employed to evaluate corrosion resistance by weighing the steel plates before and after immersion in the aqueous HCl solution. The mass loss (w) was calculated as the difference between the average initial mass (m i) and final mass (m f) of each plate (eq ). This information was subsequently used to determine the inhibition efficiency (IE) according to eq , where w 0 and w represent the mass losses in the absence and presence of the inhibitor, respectively. All measurements were performed in triplicate to ensure accuracy and reliability, and the reported values correspond to the average of these three determinations. , 5 w=[…] 6 IE(%)=(w^0−w)/w^0.100

Row | Compound | IC50 ([1]; 48 h) [µM] | IC50 ([2]; 48 h) [µM] | IC50 [3] [µM] | IC50 ([4]; 48 h) [µM] | IE (%) corrosion inhibition efficiency by mass loss [5] [%] | IC50 ([1]; Homo sapiens, MDA-MB-231, 48 h) [µM] | IC50 ([2]; Homo sapiens, A549, 48 h) [µM] | IC50 ([3]; Homo sapiens, TOV21G) [µM] | IC50 ([4]; Homo sapiens, WI26VA4, 48 h) [µM]
1 | 2-(nitromethylene)-1,3-diazepine [compound 10] | > 100 | > 100 | > 100 | > 100 | 91 ± 0.7 | – | – | – | –
2 | N#CC(C#N)=C1NCCCCN1 [compound 11, 2-(1,3-Diazepan-2-ylidene)-malononitrile] | – | – | – | – | 88 ± 0.9 | > 100 | > 100 | > 100 | > 100
3 | COC(=O)C(C#N)=C1NCCCCN1 [compound 12, Methyl 2-cyano-2-(1,3-diazepan-2-ylidene)-acetate] | – | – | – | – | 92 ± 0.6 | > 100 | > 100 | > 100 | > 100
4 | CCOC(=O)C(C(=O)OCC)=C1NCCCCN1 [compound 13, Diethyl 2-(1,3-diazepan-2-ylidene)-malonate] | – | – | – | – | 19 ± 5.4 | > 100 | > 100 | > 100 | > 100
5 | N#CC(C(=O)c1ccccc1)=C1NCCCCN1 [compound 14, 2-(1,3-Diazepan-2-ylidene)-3-oxo-3-phenylpropanenitrile] | – | – | – | – | 94 ± 2.5 | > 100 | – | > 100 | > 100
6 | COc1cccc2c1C(=O)c1c(O)c3c(c(O)c1C2=O)C[C@@](O)(C(=O)CO)C[C@@H]3O[C@H]1C[C@H](N)[C@H](O)[C@H](C)O1 [doxorubicin, reference compound] | – | – | – | – | – | 2.6 ± 0.8 | 0.67 ± 0.4 | 8.3 ± 4 | 7 ± 2
